Assay results as given in patent publication US9844546B2, “Antibody against human HIF hydroxylase” (OXFORD UNIVERSITY INNOVATION LIMITED, priority 2001, dated 2017).
Entries after “also recorded” stand apart in the source; their conditions may differ.

Assays:
C. elegans = assay: Immunoblot of ceHIF (HIF-1) in extracts of treated worms; format: in vivo; settings: 1 mM, 21% oxygen, wild type worms
Method: Immunoblots of ceHIF levels in extracts of c. elegans were carried out to monitor regulation by hypoxia and iron chelation. Firstly, the oxygen dependence of protein induction was analysed. Worms were grown on plates in bell jars flushed with air (N), or with oxygen/balance nitrogen having an oxygen concentration of 5%, 1%, 0.5% or 0.1% for 18 hrs. A graded increase in protein level was seen as the oxygen level was reduced below 5% with the highest level of induction at 0.5 and 0.1% oxygen concentration. The time course of protein induction was then studied. Worms were grown in bell jars flushed with a 0.1% oxygen/balance nitrogen mixture for 0, 4, 8, 16 or 24 hrs before preparation of extracts. […] The time course of protein decay on re-oxygenation was then assessed. Worms were grown in bell jars flushed with air (N) or a 0.1% oxygen/balance nitrogen mixture. Extracts were made either immediately, or after 4 and 8 minutes of re-oxygenation. Decay of ceHIF protein was very rapid on re-oxygenation. […] A time course RNAse protection assay showing cehif mRNA levels in worms exposed to 0.1% oxygen/balance nitrogen for 0, 4, 8, 16 and 24 hrs was carried out. No induction of ceHIF mRNA by hypoxia was seen. […] Induction by iron chelation was also studied in C. elegans. […]

[1] = test system: HIF hydroxylase (HPH activity); assay: HIF hydroxylase (HPH) inhibition, statements of the description; format: biochemical
[2] = test system: angiogenesis in subcutaneous polyurethane sponge; assay: Murine subcutaneous sponge angiogenesis assay; format: in vivo, mouse; settings: 1 mM, 100 microliters injected days 1, 2, 4, 5; day 7; versus solvent
Method: Implantation of a polyurethane sponge subcutaneously in a mouse provides an inflammatory stimulus to angiogenesis and is a well established model for assessing the pro- and anti-angiogenic effects of compounds. To test the effects of dimethyl oxalylglycine in vivo, sterile 8 mm sponge discs were inserted under the dorsal skin of C57 Black mice on Day 0. Test solutions were injected through the skin into the sponges of mice once per day on days 1, 2, 4 and 5. Individual mice received 100 microliters aliquots of either sterile dimethyloxalylglycine (0.1 mM, 1 mM or 10 mM) or carrier solution. Animals were sacrificed on day 7 and the sponges removed. The sponges were fixed in 3.7% formaldehyde, paraffin embedded and stained immunohistochemically for von Willebrand factor to identify blood vessels.
Artificial activation of the HIF signalling pathway using the methods of the invention should induce angiogenesis and will therefore be of potential therapeutic use in ischaemic disease. We tested the effect of polypeptide induced HIF stabilisation in an in vitro angiogenesis assay, co-culturing human microvascular endothelial cells (HMEC-1) with empty vector transfected or doxCODD cells. In view of the possibility of sustained activation inducing a negative feedback loop we opted to test the effects of intermittent induction. […]

Hep3b and U20S cells = assay: Gal4/HIF-1α 775-826 carboxy terminal transactivator luciferase reporter assay; format: cell-based, human; settings: normoxia or 2% hypoxia overnight
Method: Hep3b and U20S cells were co-transfected with a mixture of three plasmids; pUAS.tk.luc, encoding a GAL 4 responsive luciferase gene, pgal-hif775-826, a mammalian expression plasmid leading to expression of a fusion between a 147 amino acid DNA binding domain of GAL 4 and the carboxy terminal transactivator of human HIF-1 alpha, and pCMV.beta-gal, encoding a constitutively expressed beta-galactosidase gene as a transfection control.
48 hours following transfection, cells were incubated in normoxia or 2% hypoxia overnight in the presence or absence of dimethyl oxalyl glycine as indicated. Cell lysates were assayed for luciferase and beta galactosidase activity and the relative luciferase activity in each sample determined.

- inhibition of HIF hydroxylase / HPH [1]: act as inhibitors
SMILES: COC(=O)CNC(=O)C(=O)OC [dimethyloxalylglycine]
- ceHIF (HIF-1) protein level in normoxia (C. elegans): substantial increase in the amount of immunodetectable ceHIF; also recorded: strongly induced HIF-1
- blood vessels in sponges (von Willebrand factor) [2]: Considerably more blood vessels
- relative luciferase activity (carboxy terminal transactivator) (Hep3b and U20S cells): enhanced activity of the carboxy terminal transactivator
